Data on four compounds can be found in BindingDB's records for doi:10.1021/np980122t (Istituto Per La Chimica Di Molecole Di Interesse Biologico …, 1998).

Test [1] can be described thus: Inhibition of bee venom group3 sPLA2 at 10 uM by liquid scintillation counting.
The nature of test [2]: Inhibition of rat air pouch group2 sPLA2 at 10 uM by liquid scintillation counting.
A short description of test [3]: Inhibition of human synovial group2 sPLA2 at 10 uM by liquid scintillation counting.
Test [4] is described as follows: Inhibition of Naja naja venom group1 sPLA2 at 10 uM by liquid scintillation counting.

Take `CC1=C(CC/C(C)=C/CCC2=CC[C@H](C3=CC(=O)O[C@H]3O)O[C@H]2O)C(C)(C)CCC1` [5-Hydroxy-4-{(R)-6-hydroxy-5-[(E)-4-methyl-6-(2,6,6-trimethyl-cyclohex-1-enyl)-hex-3-enyl]-3,6-dihydro-2H-pyran-2-yl}-5H-furan-2-one]: the IC50 (as a rule, the concentration that gives 50% inhibition) in test [1] turned out to be 62.5 µM; in test [4], 17 µM. In addition, the inhibition (usually the change of the read-out against control, counted positive when it falls) worked out at 38.4% in test [2] and 93.2% in test [3].

`C=C1CCC[C@H]2[C@](C)(CCC3=CCC(C4=CC(=O)OC4O)OC3)[C@H](C)CC[C@]12C` (stereo partly drawn) [CACOSPONGIONOLIDE B] showed a half-inhibitory concentration (IC50) in test [1] of 35.4 µM. The inhibition in test [2] was 36.9%; in test [3], 86.7%.

Take `CC1=CCC[C@@H]2[C@@](C)(CCC3=CC[C@H](C4=CC(=O)O[C@H]4O)OC3)[C@@H](C)CC[C@@]12C` [cacospongionolide E]: the IC50 in test [1] stood at 94.8 µM. Moreover, the inhibition turned out to be 65.1% in test [2] and 96.7% in test [3].

For `C[C@H]1CC[C@@]23C[C@]2(C)CCC[C@@H]3[C@@]1(C)CCC1=CC[C@H](C2=CC(=O)O[C@H]2O)OC1` [cacospongionolide], the inhibition in test [2] is 21.8%; in test [3], 90.7%. In addition, the half-maximal inhibitory concentration (IC50) in test [4] is 3.5 µM.
